Values joined by “and” are separate entries in the source; they are usually repeats but may differ in a detail not shown here. Identical values can stand only once. Counter-ions that a name gives are not always drawn. Like-named read-outs stand apart in the source and are kept apart here.

The target of experiment [1] is T1, μ receptor (Rattus norvegicus, UniProt P33535). The settings on record: for Affinity for the μ receptor compared with ODMT and racemic tramadol: comparison in words of Table 1 values.
In the next experiment the test system is NE uptake. In kind it is biochemical, Rat. The settings on record: for IC50: read-out: IC50, functional monoamine uptake, NE.
For the next experiment, the system named is 5-HT uptake. Description: Functional monoamine uptake: 5-HT uptake, rat brain synaptosomes. In kind it is biochemical. The note with it: for IC50: rat brain synaptosomes, [3H]5-HT, 15 min./37° C.; for Blocking 5-HT uptake compared with racemic tramadol and ODMT: comparison in words of Table 1 values.
The next experiment addresses T2, κ receptor (Cavia porcellus, UniProt P41144).
T2 construct: Following incubation, the membranes were rapidly filtered under vacuum through glass fiber filters; from tissue
In words: κ opioid receptor binding, [3H]U 69593. The note with it: guinea-pig cerebellum, [3H]U 69593 0.7 nM, 80 minutes/22° C.

Experiment [2] concerns the target T1, μ receptor. In words: biochemical. The settings on record: IC50, opioid binding, rat cerebral cortex, [3H]DAMGO 1 nM, 60 minutes/22° C.
Another experiment deals with T3, δ receptor (Cavia porcellus, UniProt A0A286XTF2).
T3 construct: Following incubation, the membranes were rapidly filtered under vacuum through glass fiber filters; from tissue
Description: δ opioid receptor binding, [3H]DPDPE. On the set-up: species or system Guinea-pig.

The next experiment concerns DA uptake. Description: Functional monoamine uptake: DA uptake, rat corpora striatum synaptosomes. In kind it is biochemical. The settings on record: [3H]DA, 15 min./37° C. How it is done:
Radioactivity was determined with a scintillation counter (Topcount, Packard) using a liquid scintillation cocktail (Microscint 0, Packard).
These parameters were obtained by Hill equation curve fitting.

Setting [3] is: rat hypothalamus, [3H]NE, 20 min./37° C.

T3 sequence (A0A286XTF2 1-366): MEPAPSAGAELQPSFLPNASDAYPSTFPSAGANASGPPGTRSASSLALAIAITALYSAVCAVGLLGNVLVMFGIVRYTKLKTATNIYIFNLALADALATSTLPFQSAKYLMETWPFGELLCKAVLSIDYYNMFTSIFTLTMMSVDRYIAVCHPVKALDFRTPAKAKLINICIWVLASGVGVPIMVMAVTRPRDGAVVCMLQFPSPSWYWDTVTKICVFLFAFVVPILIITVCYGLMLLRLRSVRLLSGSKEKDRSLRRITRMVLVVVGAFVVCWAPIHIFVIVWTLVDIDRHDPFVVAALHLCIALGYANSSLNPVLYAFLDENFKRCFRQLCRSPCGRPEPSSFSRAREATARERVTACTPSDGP
T2 sequence (P41144 whole entry): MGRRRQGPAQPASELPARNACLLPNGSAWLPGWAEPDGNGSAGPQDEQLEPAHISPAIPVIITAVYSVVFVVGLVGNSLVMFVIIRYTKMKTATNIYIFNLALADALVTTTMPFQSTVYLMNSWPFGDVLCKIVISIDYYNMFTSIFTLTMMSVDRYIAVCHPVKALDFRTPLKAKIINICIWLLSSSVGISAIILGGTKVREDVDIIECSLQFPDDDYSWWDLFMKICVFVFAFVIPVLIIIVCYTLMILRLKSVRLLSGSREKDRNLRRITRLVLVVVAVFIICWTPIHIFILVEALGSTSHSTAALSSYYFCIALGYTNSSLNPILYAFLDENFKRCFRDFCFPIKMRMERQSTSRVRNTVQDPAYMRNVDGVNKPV
T1 sequence (P33535 whole entry): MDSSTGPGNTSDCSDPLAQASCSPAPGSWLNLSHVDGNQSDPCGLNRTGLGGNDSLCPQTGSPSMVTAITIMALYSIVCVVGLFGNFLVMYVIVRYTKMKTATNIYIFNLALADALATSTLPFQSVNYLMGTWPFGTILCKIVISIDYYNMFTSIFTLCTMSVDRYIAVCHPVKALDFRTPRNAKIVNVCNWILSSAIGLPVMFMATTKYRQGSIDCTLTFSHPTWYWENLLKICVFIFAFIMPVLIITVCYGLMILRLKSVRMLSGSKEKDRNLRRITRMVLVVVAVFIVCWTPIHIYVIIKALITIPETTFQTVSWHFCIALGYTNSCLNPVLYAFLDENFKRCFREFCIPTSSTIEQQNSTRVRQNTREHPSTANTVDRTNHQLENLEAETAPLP

The IC50 is the midpoint of a concentration-inhibition curve. Turning to `COC1(c2cccc(O)c2)CCCCC1CN(C)C` (racemic) [(R,R/S,S)-ODMOMT, (+/−)-cis-Desmethylmethyltramadol], on μ receptor [1], the “Affinity for the μ receptor compared with ODMT and racemic tramadol” value was “comparable to the corresponding enantiomer/racemate of ODMT, and much greater than that of racemic tramadol”. For the same compound, the “Blocking NE uptake compared with racemic tramadol or (S,S)-ODMT” value with NE uptake was “more effective at blocking NE uptake than racemic tramadol or (S,S)-ODMT”. Moreover, the IC50 in the experiment on NE uptake (setting [3]) came to 120 nM; in the experiment on 5-HT uptake, 2600 nM; at κ receptor, 789 nM; on μ receptor [2] it was 56 nM; at δ receptor, 4920 nM.

As to `CN(C)CC1CCCCC1(O)c1cccc(O)c1` (racemic) [(R,R/S,S)-ODMT, O-desmethyltramadol, reference compound], the half-maximal inhibitory concentration (IC50) turned out to be 4000 nM in the experiment on 5-HT uptake, 3150 nM on κ receptor and 7710 nM on δ receptor.

Consider `COc1cccc(C2(OC)CCCCC2CN(C)C)c1` (racemic) [(R,R/S,S)-OMT, O-Methyltramadol], for which, in the experiment with NE uptake, the “Blocking NE uptake compared with racemic tramadol or (S,S)-ODMT” value is “more effective at blocking NE uptake than racemic tramadol or (S,S)-ODMT” and the IC50 amounted to 29 nM. Moreover, in the experiment with 5-HT uptake, the “Blocking 5-HT uptake compared with racemic tramadol and ODMT” value is reported as “more effective at blocking at 5-HT uptake than racemic tramadol, (R,R)- or (S,S)-ODMT or racemic ODMT”; the IC50 amounted to 550 nM. Moreover, at μ receptor [2], the IC50 amounted to 7870 nM.

Turning to `COc1cccc(C2(O)CCCCC2CN(C)C)c1` (racemic) [(R,R/S,S)-Tramadol, reference compound], the IC50 at μ receptor [2] was 8270 nM and 7640 nM.

For `COc1cccc([C@@]2(OC)CCCC[C@H]2CN(C)C)c1.O=C(O)/C=C/C(=O)O` (relative stereo) [(R,S/S,R)-OMT, (+/−)-trans-O-Methyltramadol Fumaric Acid], the half-maximal inhibitory concentration (IC50) with DA uptake was 7600 nM; on μ receptor [1] (read-out: IC50, opioid binding, μ, rat cerebral cortex, [3H]DAMGO 1 nM, 60 minutes/22° C.), 3290 nM; with NE uptake (setting [3]), 560 nM; in the experiment on 5-HT uptake it was 290 nM. Further, in the experiment on 5-HT uptake, the “Blocking 5-HT uptake compared with racemic tramadol and ODMT” value is “more effective at blocking at 5-HT uptake than racemic tramadol, (R,R)- or (S,S)-ODMT or racemic ODMT”.

Turning to `CN(C)CC1CCCCC1(O)c1cccc(O)c1` (single isomer, unassigned) [(R,R)-ODMT, O-desmethyltramadol, reference compound], the IC50 with 5-HT uptake was 3300 nM; on κ receptor, 1610 nM; at δ receptor it was 4530 nM.

Turning to `CN(C)CC1CCCCC1(O)c1cccc(O)c1` (single isomer, unassigned) [(S,S)-ODMT, HCl, reference compound], the IC50 stood at 7100 nM with NE uptake (setting [3]) and 4400 nM with 5-HT uptake (HCl).

Regarding `COC1(c2cccc(O)c2)CCCCC1CN(C)C` [(R,R)-ODMOMT, (1R,2R)-(+)-Desmethylmethyltramadol], the “Affinity for the μ receptor compared with ODMT and racemic tramadol” value at μ receptor [1] is “comparable to the corresponding enantiomer/racemate of ODMT, and much greater than that of racemic tramadol”. Besides, the IC50 in the experiment on NE uptake (setting [3]) worked out at 6800 nM; with 5-HT uptake, 2100 nM; at κ receptor, 427 nM; at μ receptor [2], 30 nM; at δ receptor, 2850 nM.

`COc1cccc(C2(OC)CCCCC2CN(C)C)c1` [(R,R)-OMT, (R,R)-(+)-O-Methyltramadol]: the IC50 was determined as 4000 nM with NE uptake, 650 nM with 5-HT uptake and 7670 nM at μ receptor [2]. For the same compound, the “Blocking 5-HT uptake compared with racemic tramadol and ODMT” value in the experiment with 5-HT uptake was “more effective at blocking at 5-HT uptake than racemic tramadol, (R,R)- or (S,S)-ODMT or racemic ODMT”.

On to `CO[C@@]1(c2cccc(O)c2)CCCC[C@H]1CN(C)C` [(S,S)-ODMOMT, (1S,2S)-(−)-Desmethylmethyltramadol], for which the “Affinity for the μ receptor compared with ODMT and racemic tramadol” value on μ receptor [1] is “comparable to the corresponding enantiomer/racemate of ODMT, and much greater than that of racemic tramadol”. For the same compound, in the experiment with NE uptake, the “Blocking NE uptake compared with racemic tramadol or (S,S)-ODMT” value is listed as “more effective at blocking NE uptake than racemic tramadol or (S,S)-ODMT”. In addition, the half-inhibitory concentration (IC50) with NE uptake (setting [3]) stood at 51 nM; in the experiment on 5-HT uptake it was 5000 nM; at κ receptor it was 2440 nM; on μ receptor [2], 566 nM.

Regarding `CNCCCC1c2ccccc2C=Cc2ccccc21` [Protriptyline, reference compound], the concentration for half-maximal inhibition (IC50) with NE uptake was 40 nM and 26 nM.

“(+/−)-trans-O-Methyldidesmethyltramadol HCl [(R,S/S,R)-NDMOMT]” returned an IC50 with 5-HT uptake of 16000 nM.

With O-methyl tramadol [(S,S)-OMT], the half-maximal inhibitory concentration (IC50) in the experiment on NE uptake turned out to be 16000 nM.

The values above are taken from US6780891B2, “Tramadol analogs and uses thereof” (Sepracor Inc., priority 2001, dated 2004).
